Data reported in patent publication US9827229B2, “Small molecule securinine and norsecurinine analogs and their use in cancers, inflammatory diseases and infections” (INVENIO THERAPEUTICS INC., priority 2013, dated 2017).

The compounds below were run on HL60 cells (assay: Differentiation of HL60 cells (Dif50)). Details: Homo sapiens, HL-60, read-out: HL-60, Dif50, HL-60 cells, differentiation; no unit in head or cell (other cells of the column print uM).
Assay type: cell-based, human
Excerpt: The tested compounds and their respective results are produced in Table 1. Those skilled in the art will appreciate that combining the securinine and/or norsecurinine analogs with other differentiation inducing agents, such as all-trans retinoic acid, cytarabine and/or an anthracycline, would be of further benefit. Those skilled in the art will appreciate that inducing differentiation may further reduce oxidative damage due to lower presence of radical inducing enzymes (see, e.g., Yamada et al. J Biol Chem 259(5)3021-3025 (1984) and Weil et al., PNAS 84:2057-2061 (1987)).
(§1) The analogs were then tested and evaluated on the ability to affect differentiation and growth of HL60 cells.

| Compound | EC50 [µM] |
| --- | --- |
| O=C1CC2(SCC(F)(F)F)CC(SCC(F)(F)F)[C@@H]3C[C@@]2(O1)[C@H]1CCCCN31 (stereo partly drawn) [INVS-MG-5A] | 5 to 7.5 |
| O=C1O[C@]23CC4OC4[C@H](ON4CCCC[C@@H]42)C32OC12 (stereo partly drawn) [INVS-MG-76-aq] | > 30 |
| COC(OC)[C@H]1CCC2N1[C@@H]1C=CC3=CC(=O)O[C@@]32C1 (stereo partly drawn) [INVG-Z-27-4 = INVS-MG-52D] | 3.25 to 5 |
| CO[C@H]1CC2=CC(=O)O[C@@]23C[C@@H]1N1CCCC[C@@H]13 [INVS-MG-97-IIB] | > 30 |

Same assay, conditions: read-out: HL-60, Dif50; HL-60 cells, differentiation; no unit in head or cell (other cells of the column print uM)

| Compound | EC50 [µM] |
| --- | --- |
| O=C1O[C@]23CC4OC4[C@H](ON4CCCC[C@@H]42)C32OC12 (stereo partly drawn) [INVS-MG-77-aq] | > 30 |
| O=C1C=C2C=C[C@@H]3C[C@@]2(O1)[C@H]1CCCCN31 [INVS-MG-94-aq] | > 30 |

What follows are compounds tested on HCT116 P53−/− (assay: Growth inhibition of colon cancer HCT116 P53−/−). Details: Homo sapiens, HCT-116, colon cancer HCT116 P53−/−.
Assay type: cell-based
Excerpt: (§2) The analogs were then further tested for inhibiting growth against various cancer cell lines: AML (Mol3, OCI), Colon cancer (HCT116) and Ovary cancer (SKOV3). IC50 are documented in Table 2.

| Compound | IC50 [nM] |
| --- | --- |
| CCN(CC)CC#CC1=C[C@@H]2C[C@@]3(OC(=O)C=C13)[C@H]1CCCCN21 [INVS-MG-145A] | 2100 |

The compounds below were run on HL60 cells (assay: Growth of HL60 cells (IC50)). Details: HL-60 cells, growth; no unit in head or cell (other cells of the column print uM); read-out: HL-60, IC50.
Assay type: cell-based, human
Procedure: as §1

| Compound | IC50 [µM] |
| --- | --- |
| CCCN(CC#CC1=C[C@@H]2C[C@@]3(OC(=O)C=C13)[C@H]1CCCCN21)CCC [INVS-MG-152-III] | < 0.03 |

Same assay, conditions: Homo sapiens, HL-60, HL-60 cells, growth; no unit in head or cell (other cells of the column print uM); read-out: HL-60, IC50

| Compound | IC50 [µM] |
| --- | --- |
| COc1cccc(C#CC2=C[C@@H]3C[C@@]4(OC(=O)C=C24)[C@H]2CC[C@H](C(OC)OC)N32)c1 [INVS-MG-221B] | 0.625 to 1.25 |
| COC(OC)[C@H]1CC[C@H]2N1[C@@H]1C=C(C#Cc3ccc(N)cc3)C3=CC(=O)O[C@@]32C1 [INVS-MG-219A] | 0.625 to 1.25 |
| O=C1C=C2C=CC3CC2(O1)C1CCC(CO)N31 (stereo not drawn) [INV-SZ-132-2] | 0.3 to 0.6 |
| O=C1C=C2C(/C=C(\C#CCCCCl)CCCCl)=C[C@@H]3C[C@@]2(O1)[C@H]1CCCCN31 [INVS-MG-119B] | 1.25 to 2.5 |
| O=C1C=C2C3C=CCC2(O1)C1CCC=CN1O3 (stereo not drawn) [INV-SZ-125-3] | < 5 |
| COc1ccc(C#CC2=C[C@@H]3C[C@@]4(OC(=O)C=C24)[C@H]2CC[C@H](C(OC)OC)N32)cc1OC [INVS-MG-223B] | 0.156 to 0.31 |
| CCCCN(CC#CC1=C[C@@H]2C[C@@]3(OC(=O)C=C13)[C@H]1CCCCN21)CCCC [INVS-MG-179B] | 0.156 to 0.31 |
| O=CC1CCC2N1C1C=CC3=CC(=O)OC32C1 (stereo not drawn) [INV-SZ-132-1] | 1.25 to 2.5 |
| O=C1C=C2C(C#Cc3cccnc3)=C[C@@H]3C[C@@]2(O1)[C@H]1CCCCN31 [INVS-MG-144B] | 0.31 to 0.625 |
| [N-]=[N+]=Nc1ccc(C#CC2=C[C@@H]3C[C@@]4(OC(=O)C=C24)[C@H]2CCCCN32)cc1 [INVS-MG-193-III] | 0.156 to 0.31 |
| COc1ccc2cc(C#CC3=C[C@@H]4C[C@@]5(OC(=O)C=C35)[C@H]3CCCCN43)ccc2c1 [INVS-MG-157-III] | 0.07 to 0.156 |
| O=C1C=C2C(C#CCCCCl)=C[C@@H]3C[C@@]2(O1)[C@H]1CCCCN31 [INVS-MG-119A] | 0.625 to 1.25 |
| CCCCC1C(/C=C/c2ccc(OC)cc2)C2=CC(=O)O[C@@]23C[C@@H]1N1CCCC[C@@H]13 (stereo partly drawn) [INVS-MG-163-IIB] | < 10 |
| COC(OC)C1CCC2N1C1C=C(C#CCO)C3=CC(=O)OC32C1 (stereo not drawn) [INV-SZ-136-1] | 0.15 to 0.31 |
| O=C1C=C2C(C#Cc3ccc(CO)cc3)=CC3CC2(O1)C1CCCCN31 (stereo not drawn) [INV-SZ-120-1] | 0.07 to 0.15 |
| COc1cc(C#CC2=C[C@@H]3C[C@@]4(OC(=O)C=C24)[C@H]2CC[C@H](C(OC)OC)N32)cc(OC)c1 [INVS-MG-222B] | < 0.03 |

Same assay, conditions: Homo sapiens, HL-60, read-out: HL-60, IC50, HL-60 cells, growth

| Compound | IC50 [µM] |
| --- | --- |
| COC(OC)[C@H]1CC[C@H]2N1[C@@H]1C=CC3=CC(=O)O[C@@]32C1 [INVS-MG-99-IVD] | < 5 |
| COC(OC)[C@@H]1CC[C@H]2N1[C@@H]1C=C(C#Cc3cc4ccccc4c4ccccc34)C3=CC(=O)O[C@@]32C1 [INVS-MG-220C] | > 5 |

Same assay, conditions: Homo sapiens, HL-60, read-out: HL-60, IC50, HL-60 cells, growth; no unit in head or cell (other cells of the column print uM)

| Compound | IC50 [µM] |
| --- | --- |
| COC(OC)[C@H]1CC[C@H]2N1[C@@H]1C=C(I)C3=CC(=O)O[C@@]32C1 [INVS-MG-99-IVB-I] | 0.31 to 0.625 |
| O=C1C=C2C=CC3CC2(O1)C1=C(Br)CCCN13 (stereo not drawn) [INV-SZ-118-2] | 0.31 to 0.62 |
| CN(C)c1ccc(C#CC2=C[C@@H]3C[C@@]4(OC(=O)C=C24)[C@H]2CCCCN32)cc1 [INVS-MG-146-IV] | 0.07 to 0.156 |
| O=C1C=C2C(C#Cc3cc4ccccc4c4ccccc34)=C[C@@H]3C[C@@]2(O1)[C@H]1CCCCN31 [INVS-MG-158-VI] | 0.156 to 0.31 |

These compounds were tested on HCT116 P53+/+ (assay: Growth inhibition of colon cancer HCT116 P53+/+). Details: Homo sapiens, HCT-116, colon cancer HCT116 P53+/+.
Assay type: cell-based
Excerpt: as §2

| Compound | IC50 [nM] |
| --- | --- |
| CCN(CC)CC#CC1=C[C@@H]2C[C@@]3(OC(=O)C=C13)[C@H]1CCCCN21 [INVS-MG-145A] | 1100 |

What follows are compounds tested on SKOV3 P53+/+ (assay: Growth inhibition of ovary cancer SKOV3 P53+/+). Details: Homo sapiens, SK-OV-3, ovary cancer SKOV3 P53+/+.
Assay type: cell-based
Excerpt: as §2

| Compound | IC50 [nM] |
| --- | --- |
| CCN(CC)CC#CC1=C[C@@H]2C[C@@]3(OC(=O)C=C13)[C@H]1CCCCN21 [INVS-MG-145A] | 800 |

The compounds below were run on SKOV3 P53−/− (assay: Growth inhibition of ovary cancer SKOV3 P53−/−). Details: Homo sapiens, SK-OV-3, ovary cancer SKOV3 P53−/−.
Assay type: cell-based
Excerpt: as §2

| Compound | IC50 [nM] |
| --- | --- |
| CCN(CC)CC#CC1=C[C@@H]2C[C@@]3(OC(=O)C=C13)[C@H]1CCCCN21 [INVS-MG-145A] | 1200 |
